Test results taken from paper PMC5513091, “A novel Alzheimer’s disease drug candidate targeting inflammation and fatty acid metabolism” (Alzheimer's Research & Therapy, 2017).

How the values were obtained:
[1] = system: Primary embryonic day 18 cortical cells; assay: Trophic factor withdrawal assay; format: cell-based; settings: Cortical neurone; Cortical neuron; cell viability; read-out: Half-maximal effective concentration, Trophic factor withdrawal
Experimental: (§1) The various phenotypic screening assays were conducted as previously described. Briefly, HT-22, primary cortical neurons, or MC65 was plated and exposed to the different environmental stresses. Cells were treated with varying concentrations of CAD-31, and half-maximal effective concentration (EC50) was determined on the basis of cell viability.
(§2) • An assay that mimics the dramatic loss of neurotrophic support in the old brain is the trophic factor withdrawal assay. Primary embryonic day 18 cortical cells are plated at low density in serum-free medium. At low density, the cells die within 2 days; they can be rescued by combinations of neurotrophic growth factors, but not by one alone ([19] and unpublished data). […] BDNF is a molecule that is also involved in promoting memory and neurogenesis and is reduced in the brain with age and in AD, as well as in other neurological disorders. BDNF has long been considered a drug target for AD [23]. […] A reduction in GSH is a common denominator of old age and essentially all chronic central nervous system (CNS) diseases. J147 and CAD-31 both effectively reduce oxidative stress, with EC50 of 6 nM and 20 nM, respectively. • CAD-31 also prevents loss of energy metabolism that leads to neuron cell death in an in vitro ischemia model. […]

[2] = system: HT22 cells expressing the brain-derived neurotrophic factor (BDNF) receptor transmembrane receptor kinase B; assay: BDNF-like activity (rescue from serum starvation); format: cell-based; settings: Mus musculus, HT-22, read-out: Half-maximal effective concentration, BDNF-like activity
Experimental: as §1, §2

primary cortical neurons = assay: Oxytosis; format: cell-based; settings: Primary cortical neuron; read-out: Half-maximal effective concentration, Oxytosis
Experimental: as §1, §2

HT22 = assay: In vitro ischemia; format: cell-based; settings: Mus musculus, HT-22, read-out: Half-maximal effective concentration, In vitro ischemia
Experimental: as §1, §2

rat hippocampal neurons = assay: Aβ toxicity (extracellular); format: cell-based; settings: Hippocampal neuron, read-out: Half-maximal effective concentration, Aβ toxicity (extracellular)
MC65 = assay: Aβ toxicity (intracellular); format: cell-based, human; settings: Homo sapiens, MC65, MC65; read-out: Half-maximal effective concentration, Aβ toxicity (intracellular)
Experimental: as §1
• An assay that mimics the dramatic loss of neurotrophic support in the old brain is the trophic factor withdrawal assay. Primary embryonic day 18 cortical cells are plated at low density in serum-free medium. At low density, the cells die within 2 days; they can be rescued by combinations of neurotrophic growth factors, but not by one alone ([19] and unpublished data). […] BDNF is a molecule that is also involved in promoting memory and neurogenesis and is reduced in the brain with age and in AD, as well as in other neurological disorders. BDNF has long been considered a drug target for AD [23]. […] A reduction in GSH is a common denominator of old age and essentially all chronic central nervous system (CNS) diseases. J147 and CAD-31 both effectively reduce oxidative stress, with EC50 of 6 nM and 20 nM, respectively. • CAD-31 also prevents loss of energy metabolism that leads to neuron cell death in an in vitro ischemia model. […] Intracellular Aβ toxicity was assayed in the human neuron cell line MC65 that conditionally expresses the C99 fragment of the amyloid precursor protein. When the cells are induced to make Aβ, the cells die within 4 days. Both J147 and CAD-31 block this toxicity at around 10 nM. Therefore, CAD-31 has a repertoire of neuroprotective activities similar but not identical to that of its parent compound, J147.

Aβ1–42 = Aβ1–42 (Homo sapiens, UniProt P05067); assay: Thioflavin S Aβ1–42 aggregation assay; format: biochemical; settings: data not shown
Aβ1–42, sequence (P05067 672-713 limits assumed): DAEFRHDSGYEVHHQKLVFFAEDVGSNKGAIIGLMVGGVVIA

normal rodents = system: normal rodents; design: method as in PMID 22194796, PMID 23673233, PMID 27149904; settings: cited from earlier work
APPswe/PS1∆E9 mice = system: APPswe/PS1∆E9 mice; design: method as in PMID 22194796, PMID 23673233, PMID 27149904; settings: administered to 3-month-old APPswe/PS1∆E9 mice for 7 months; cited from earlier work
[3] = system: senescence-accelerated mouse-prone 8 (SAMP8) mice; design: method as in PMID 26564964; settings: model of sporadic AD; cited from earlier work
[4] = system: very old transgenic AD mice; design: method as in PMID 23673233; settings: fed to very old transgenic AD mice; cited from earlier work
[5] = system: APPswe/PS1∆E9-transgenic mice; design: method as in PMID 23785163; settings: fed to APPswe/PS1∆E9-transgenic mice, preventive paradigm; cited from earlier work

| EC50 [2] | EC50 (primary cortical neurons) | EC50 (HT22) | Structure (SMILES) | EC50 [1] | EC50 (rat hippocampal neurons) | EC50 (MC65) | binding to and direct inhibition of Aβ1–42 aggregation (Aβ1–42) | memory (normal rodents) | loss of synaptic proteins and cognitive decline (APPswe/PS1∆E9 mice) | loss of synaptic proteins and cognitive decline [3] | memory deficits and AD pathology [4] | accumulation of ubiquitinated, aggregated proteins in the brain [5] |
| --- | --- | --- | --- | --- | --- | --- | --- | --- | --- | --- | --- | --- |
| 74 nM | 6 nM | 14 nM | COc1cccc(/C=N/N(C(=O)C(F)(F)F)c2ccc(C)cc2C)c1 [J147, reference compound] | 35 nM | 15 nM | ~10 nM | Neither J147 nor CAD-31 binds to and directly inhibits Aβ1–42 aggregation | facilitates memory in normal rodents | prevents the loss of synaptic proteins and cognitive decline | prevents the loss of synaptic proteins and cognitive decline | reverses memory deficits and some AD pathology |  |
|  |  |  | COc1cc(/C=C/c2cc(/C=C/c3ccc(O)c(OC)c3)n(-c3ccccc3)n2)ccc1O [CNB-001] |  |  |  |  |  |  |  |  | reduces the accumulation of ubiquitinated, aggregated proteins in the brain |
